Test results reported in patent EP3372592A1, “SOLID FORMS OF LESINURAD AMINE SALTS” (Zentiva, k.s., priority 2017, dated 2018).

What was measured:
[1] = Determining the dissolution rate using the true dissolution method (Sirius inForm, pressed disks); type: physicochemical; details: for dissolution rate: true dissolution disks d = 3 mm, 40 ml acetate-phosphate buffer pH 6.8, 100 rpm, UV/Vis; for times more soluble than crystalline form 2 of lesinurad free acid: ratio of dissolution rates measured under identical conditions
Protocol: The dissolution rate was measured using a Sirius inForm dissolution device. Disks for true dissolution with the surface area available for dissolution of 0.071 cm^2 (d = 0.3 cm) were prepared using a Specac press. The pressing time was 2x2 minutes at the pressing pressure of 100 kg. The dissolution was carried out in 40 ml of a solution at pH 6.8 (38 ml of 150mM NaCl + 2 ml of 150mM NaCl, 100mM CH3COONa, 100mM NaH2PO4), at the constant speed of 100 rpm. Samples were drawn at 5-second intervals and the concentration of dissolved lesinurad was determined by means of an integrated UV/Vis spectrophotometric probe in the wavelength range of 230-400 nm. Disks for measuring true dissolution (d = 3 mm) were produced from the prepared solid forms of lesinurad, i.e. free acid form 2 (reference form), tromethamine salt form I and diethylamine salt, and solid form of lesinurad with urea (form I), with the use of a press. The dissolution was carried out in 40 ml of an acetate-phosphate buffer at pH 6,8 (150mM NaCl, 5mM CH3COONa, 5mM NaH2PO4), at the constant stirring speed of 100 rpm. Samples were drawn at 5-second intervals and the concentration of dissolved lesinurad was determined by means of a UV/Vis spectrophotometer.

[2] = Chemical and polymorphic stability test of the crystalline form; type: physicochemical
Protocol: The prepared crystalline form I was subjected to tests from the point of view of chemical and polymorphic stability. […] The same results were also obtained after 3 days at 80°C.

SMILES | dissolution rate [1] [mg/min/cm^2] | dissolution rate ([1]; listed as crystalline form 2 of lesinurad free acid) [mg/min/cm^2] | times more soluble than crystalline form 2 of lesinurad free acid ([1]; listed as salt with diethylamine) [times] | dissolution rate ([1]; listed as lesinurad with dimethylamine) [mg/min/cm^2] | times more soluble than crystalline form 2 of lesinurad free acid ([1]; listed as solid form of lesinurad with tromethamine) | dissolution rate ([1]; listed as lesinurad with tromethamine) [mg/min/cm^2] | chemical and polymorphic stability ([2]; after 3 months at 40°C / 75% humidity) | chemical and polymorphic stability ([2]; after 3 days at 80°C)
O=C(O)CSc1nnc(Br)n1-c1ccc(C2CC2)c2ccccc12 [lesinurad free acid (form 2), 2-(5-bromo-4-(1-cyclopropylnaphtalen-4-yl)-4H-1,2,4-triazol-3-ylthio)acetic acid, reference compound] | 0.42 | 0.42 |  |  |  |  |  | 
O=C(O)CSc1nnc(Br)n1-c1ccc(C2CC2)c2ccccc12 [lesinurad with diethylamine] | 21.58 |  | ~50 | 21.58 |  |  |  | 
O=C(O)CSc1nnc(Br)n1-c1ccc(C2CC2)c2ccccc12 [lesinurad with tromethamine (form I)] | 7.44 |  |  |  | about 17 times | 7.44 | did not show any signs of chemical degradation or transition to a different polymorphic form | same results
